Results: patent US20200216493A1, “ANTIMICROBIAL PEPTIDES” (FERRING B.V., priority 2016, published 2020)
Converted amounts (≈) assume the structure as drawn. Where two headings read alike, the source gives them in different places. Bridge positions count the residues as written; N and C are the ends. Square brackets hold non-standard residues; d marks the D form. Peptide text beside a SMILES is read from it. 1Nal = N[C@@H](Cc1cccc2ccccc12)C(=O)O; d(aIle) = CC[C@H](C)[C@@H](N)C(=O)O; dNMeF = CN[C@H](Cc1ccccc1)C(=O)O; hArg = N=C(N)NCCCC[C@H](N)C(=O)O

Legend:
E.coli = format: cell-based, Escherichia coli; details: for MIC ratio Coli/Staph: ratio of E. coli MIC to S. aureus MIC
Method: (§1) This assay was used to determine the minimum concentration of a test compound (i.e., an antimicrobial peptide described herein) able to inhibit the growth of a bacterial strain of interest. This is a standard method for measuring and comparing the potency of peptide-based antibacterial agents (Steinberg et al., Antimicrobial Agents and Chemotherapy 1997, 41 (8) 1738 - 1742 and Wiegand et al., Nature Protocols 2008, 3, 163-175).
(§2) The MIC is reported in units of μg/mL.
(§3) Bacterial cultures were grown by inoculating Mueller-Hinton Broth (MHB) with 3 or 4 representative colony (typical size, color, and shape) from a bacterial strain grown on a LB agar plate. Inoculated liquid cultures were grown at 37° C. with moderate shaking (200-250 rpm) until bacteria produced a visibly turbid suspension. Bacterial inoculum was approximated by measuring the optical density at 600 nm (0D600) of the bacterial culture against a sterile MHB blank. Typically, OD600=0.10 corresponds to ˜1×10^8 cfu/mL for S.aureus and OD600 =0.15 corresponds to ˜1×10^8 cfu/mL for E.coli.
(§4) Test compounds were prepared as stock solutions in vehicle at a concentration 10 times the highest concentration to be tested for antibacterial activity (usually 320 μg/mL stock solutions). 2x serial dilutions in vehicle (at 10× the final test concentrations) of the test compounds were prepared from the test compound stock solutions in a non-binding 96 well plate.
(§5) In a sterile clear flat bottom 96 well plate, 15 μL of each test compound dilution was added to 135 μL of ˜5×10^5 cfu/mL bacterial culture. Each concentration was tested in duplicate. Each experiment contained positive control wells for bacterial growth (i.e., no test compound added to bacteria) and sterility controls wells (i.e., sterile MHB and no test compounds added). 96 well plates containing bacterial cultures and test compounds were incubated at 37° C. for 16-20 hours with shaking at 200 rpm.
(§6) After incubation, the MIC of each test compound was determined by measuring the OD600 of each well using a plate reader. Wells with OD600 >0.08 were considered to have bacterial growth and wells with OD600<0.08 were considered to have no bacterial growth. The lowest concentration of test agent able to inhibit bacterial growth (0D600<0.08 after 16-20 hours) was defined as the MIC.

S.aureus = format: cell-based, Staphylococcus aureus
Method: as §1, §2, §3, §4, §5, §6

[1] = broth microdilution, Example 17a

SMILES	MIC C. difficile (C. difficile) [µg/mL]	MIC E. coli (E.coli; [1]) [µg/mL]	MIC ratio Coli/Staph (E.coli)	MIC B. fragilis (B. fragilis) [µg/mL]	MIC S. aureus (S.aureus; [1]) [µg/mL]	MIC E. coli (E.coli) [µg/mL]	MIC S. aureus (S.aureus) [µg/mL]	MIC C. difficile (C. difficile; anaerobic broth microdilution, read after 44-48 hours, Example 17b) [µg/mL]
CC[C@H](C)[C@H](NC(=O)[C@@H](Cc1ccccc1)NC)C(=O)N[C@@H](CCCCN)C(=O)N[C@H](CCC(N)=O)C(=O)N[C@@H](C(=O)N[C@H](C(=O)N[C@@H](CO)C(=O)N[C@H]1C(=O)N[C@@H](C)C(=O)N[C@@H](CCCCNC(=N)N)C(=O)N[C@@H]([C@@H](C)CC)C(=O)O[C@H]1C)[C@@H](C)CC)[C@@H](C)CC [Compound 1, H-D-MePhe-Ile-Lys-D-Gln-D-aIle-Ile-Ser-c(D-Thr-Ala-Har-Ile)] (H-[dNMeF]IK[dQ][d(aIle)]IS[dT]A[hArg]I; ester 8-C)	<0.03	4 (≈ 3.08 µM)	67	>32	0.06 (≈ 0.0462 µM)	–	–	–
CC[C@H](C)[C@H](NC(=O)[C@@H](Cc1ccccc1)NC)C(=O)N[C@@H](CCCCN)C(=O)N[C@H](CCC(N)=O)C(=O)N[C@@H](C(=O)N[C@H](C(=O)N[C@@H](CO)C(=O)N[C@H]1C(=O)N[C@@H](C)C(=O)N[C@@H](CCCCN)C(=O)N[C@@H]([C@@H](C)CC)C(=O)O[C@H]1C)[C@@H](C)CC)[C@@H](C)CC [Compound 8, H-D-MePhe-Ile-Lys-D-Gln-D-aIle-Ile-Ser-c(D-Thr-Ala-Lys-Ile)] (H-[dNMeF]IK[dQ][d(aIle)]IS[dT]AKI; ester 8-C)	0.06 (≈ 0.0477 µM)	4 (≈ 3.18 µM)	31	>32	0.13 (≈ 0.103 µM)	–	–	–
CC[C@@H](C)[C@@H](NC(=O)[C@@H](CCC(N)=O)NC(=O)[C@H](CO)NC(=O)[C@@H](NC(=O)[C@@H](Cc1ccccc1)NC)[C@@H](C)CC)C(=O)N[C@H](C(=O)N[C@@H](CO)C(=O)N[C@H]1C(=O)N[C@@H](C)C(=O)N[C@@H](CCCCN)C(=O)N[C@@H]([C@@H](C)CC)C(=O)O[C@H]1C)[C@@H](C)CC [Compound 12, H-D-MePhe-Ile-Ser-D-Gln-D-Ile-Ile-Ser-c(D-Thr-Ala-Lys-Ile)]	0.25 (≈ 0.206 µM)	–	128	>32	–	32 (≈ 26.3 µM)	0.25 (≈ 0.206 µM)	–
CC[C@H](C)[C@H](NC(=O)[C@H](N)Cc1ccc(Cl)cc1)C(=O)N[C@@H](CO)C(=O)N[C@H](CCC(N)=O)C(=O)N[C@@H](C(=O)N[C@H](C(=O)N[C@@H](CO)C(=O)N[C@H]1C(=O)N[C@@H](C)C(=O)N[C@@H](CCCCN)C(=O)N[C@@H]([C@@H](C)CC)C(=O)O[C@H]1C)[C@@H](C)CC)[C@@H](C)CC [Compound 4, H-D-Phe(4-Cl)-Ile-Ser-D-Gln-D-aIle-Ile-Ser-c(D-Thr-Ala-Lys-Ile)]	0.06 to 0.12	–	62	>32	–	8 (≈ 6.47 µM)	0.13 (≈ 0.105 µM)	–
CC[C@H](C)[C@H](NC(=O)[C@@H](Cc1ccccc1)NC)C(=O)N[C@@H](Cc1cccc2ccccc12)C(=O)N[C@H](CCC(N)=O)C(=O)N[C@@H](C(=O)N[C@H](C(=O)N[C@@H](CO)C(=O)N[C@H]1C(=O)N[C@@H](C)C(=O)N[C@@H](CCCCN)C(=O)N[C@@H]([C@@H](C)CC)C(=O)O[C@H]1C)[C@@H](C)CC)[C@@H](C)CC [Compound 3, H-D-MePhe-Ile-1Nal-D-Gln-D-aIle-Ile-Ser-c(D-Thr-Ala-Lys-Ile)] (H-[dNMeF]I[1Nal][dQ][d(aIle)]IS[dT]AKI; ester 8-C)	–	–	>356	–	–	>32	0.09 (≈ 0.0678 µM)	–
CC[C@H](C)[C@H](NC(=O)[C@@H](Cc1ccccc1)NC)C(=O)N[C@@H](Cc1c[nH]c2ccccc12)C(=O)N[C@H](CCC(N)=O)C(=O)N[C@@H](C(=O)N[C@H](C(=O)N[C@@H](CO)C(=O)N[C@H]1C(=O)N[C@@H](C)C(=O)N[C@@H](CCCCNC(=N)N)C(=O)N[C@@H]([C@@H](C)CC)C(=O)O[C@H]1C)[C@@H](C)CC)[C@@H](C)CC [Compound 2, H-D-MePhe-Ile-Trp-D-Gln-D-aIle-Ile-Ser-c(D-Thr-Ala-Har-Ile)]	0.06 (≈ 0.0442 µM)	–	>356	>32	–	>32	0.09 (≈ 0.0663 µM)	–
CC[C@H](C)[C@H](NC(=O)[C@@H](Cc1ccccc1)NC)C(=O)N[C@@H](CO)C(=O)N[C@H](CCC(N)=O)C(=O)N[C@@H](C(=O)N[C@H](C(=O)N[C@@H](CO)C(=O)N[C@H]1C(=O)N[C@@H](C)C(=O)N[C@@H](CCCCNC(=N)NC)C(=O)N[C@@H]([C@@H](C)CC)C(=O)O[C@H]1C)[C@@H](C)CC)[C@@H](C)CC [Compound 6, H-D-MePhe-Ile-Ser-D-Gln-D-aIle-Ile-Ser-c(D-Thr-Ala-Har(Me)-Ile)]	0.03 (≈ 0.0236 µM)	–	62	>32	–	8 (≈ 6.29 µM)	0.13 (≈ 0.102 µM)	–
CC[C@H](C)[C@H](NC(=O)[C@@H](Cc1ccccc1)NC)C(=O)N[C@@H](CO)C(=O)N[C@H](CCC(N)=O)C(=O)N[C@@H](C(=O)N[C@H](C(=O)N[C@@H](CO)C(=O)N[C@H]1C(=O)N[C@@H](C)C(=O)N[C@@H](CCCCCN)C(=O)N[C@@H]([C@@H](C)CC)C(=O)O[C@H]1C)[C@@H](C)CC)[C@@H](C)CC [Compound 9, H-D-MePhe-Ile-Ser-D-Gln-D-aIle-Ile-Ser-c(D-Thr-Ala-hLys-Ile)]	0.12 (≈ 0.0975 µM)	–	123	>32	–	16 (≈ 13 µM)	0.13 (≈ 0.106 µM)	–
CC[C@H](C)[C@H](NC(=O)[C@@H](Cc1ccccc1)NC)C(=O)N[C@@H](CO)C(=O)N[C@H](Cc1c[nH]c2ccccc12)C(=O)N[C@@H](C(=O)N[C@H](C(=O)N[C@@H](CO)C(=O)N[C@H]1C(=O)N[C@@H](C)C(=O)N[C@@H](CCCCN)C(=O)N[C@@H]([C@@H](C)CC)C(=O)O[C@H]1C)[C@@H](C)CC)[C@@H](C)CC [Compound 13, H-D-MePhe-Ile-Ser-D-Trp-D-aIle-Ile-Ser-c(D-Thr-Ala-Lys-Ile)] (H-[dNMeF]IS[dW][d(aIle)]IS[dT]AKI; ester 8-C)	–	–	64	–	–	16 (≈ 12.6 µM)	0.25 (≈ 0.196 µM)	–
CC[C@H](C)[C@H](NC(=O)[C@@H](Cc1ccccc1)NC)C(=O)N[C@@H](Cc1c[nH]c2ccccc12)C(=O)N[C@H](CCC(N)=O)C(=O)N[C@@H](C(=O)N[C@H](C(=O)N[C@@H](CO)C(=O)N[C@H]1C(=O)N[C@@H](C)C(=O)N[C@@H](CCCCN)C(=O)N[C@@H]([C@@H](C)CC)C(=O)O[C@H]1C)[C@@H](C)CC)[C@@H](C)CC [Compound 7, H-D-MePhe-Ile-Trp-D-Gln-D-aIle-Ile-Ser-c(D-Thr-Ala-Lys-Ile)] (H-[dNMeF]IW[dQ][d(aIle)]IS[dT]AKI; ester 8-C)	–	–	246	>32	–	32 (≈ 24.3 µM)	0.13 (≈ 0.0988 µM)	≤0.03 to 0.06
CC[C@H](C)[C@H](NC(=O)[C@H](NC(=O)[C@@H](CCC(N)=O)NC(=O)[C@H](CO)NC(=O)[C@H](CC(C)C)NC(=O)[C@@H](Cc1ccccc1)NC)[C@@H](C)CC)C(=O)N[C@@H](CO)C(=O)N[C@H]1C(=O)N[C@@H](C)C(=O)N[C@@H](CCCCN)C(=O)N[C@@H]([C@@H](C)CC)C(=O)O[C@H]1C [Compound 10, H-D-MePhe-Leu-Ser-D-Gln-D-aIle-Ile-Ser-c(D-Thr-Ala-Lys-Ile)] (H-[dNMeF]LS[dQ][d(aIle)]IS[dT]AKI; ester 8-C)	–	–	84	–	–	16 (≈ 13.2 µM)	0.19 (≈ 0.156 µM)	–
